Assay results reported in PubChem BioAssay (NCI).
“And” between values parts separate entries of the source, which are not always exact repeats. Equal values may be shown once.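 Following 48 hours of exposure in 96-well plates, responses at five concentrations were used to interpolate endpoints linearly. The concentration for 50% growth inhibition is given as GI50. Definition used: TGI = concentration required for complete inhibition of growth.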

Legend:
Assay in all cases: NCI-60 cell line screen, 48 h
TK-10 renal = system: TK-10 renal
OVCAR-8 ovarian = system: OVCAR-8 ovarian
ACHN renal = system: ACHN renal
SK-MEL-28 melanoma = system: SK-MEL-28 melanoma
HT29 colon = system: HT29 colon
MOLT-4 leukemia = system: MOLT-4 leukemia
786-0 renal = system: 786-0 renal
MALME-3M melanoma = system: MALME-3M melanoma
KM12 colon = system: KM12 colon
MDA-MB-435 = system: MDA-MB-435

SMILES	TGI (TK-10 renal) [µM]	TGI (OVCAR-8 ovarian) [µM]	TGI (ACHN renal) [µM]	TGI (SK-MEL-28 melanoma) [µM]	TGI (HT29 colon) [µM]	TGI (MOLT-4 leukemia) [µM]	TGI (786-0 renal) [µM]	TGI (MALME-3M melanoma) [µM]	GI50 (OVCAR-8 ovarian) [µM]	GI50 (KM12 colon) [µM]	TGI (KM12 colon) [µM]	GI50 (ACHN renal) [µM]	GI50 (SK-MEL-28 melanoma) [µM]	GI50 (HT29 colon)	GI50 (MOLT-4 leukemia) [µM]	GI50 (786-0 renal) [µM]	GI50 (MALME-3M melanoma) [µM]	GI50 (TK-10 renal) [µM]	GI50 (MDA-MB-435) [µM]	TGI (MDA-MB-435) [µM]
O=C(O)C(CP(=O)(O)O)=C(Cl)Cl	> 100	> 100	> 100	> 100	> 100	> 100	> 100	> 100												
CC(=O)[CH-]C(=O)c1ccccc1.CC(=O)[CH-]C(=O)c1ccccc1.CC[O-].CC[O-].[Zr+4]		> 100	> 100	> 100	> 100	> 100	> 100	> 100	> 100	> 100	> 100	> 100	> 100	> 100 µM	> 100	> 100	> 100			
COc1cc(/C=C2/C(=O)N(C(=O)OC(C)C)C(Cc3cc(OC)c(OC)c(C)c3OC)C(=O)N2Cc2ccccc2)c(OC)c(C)c1OC (stereo not drawn)	> 100	> 100	> 100	> 100	> 100	44.1	> 100	> 100			> 100									
Cc1c(Cl)ccc2c1NC(=O)C2(O)C(C(=O)c1ccccc1)c1ccccc1 (stereo not drawn)	> 100	> 100	> 100	> 100	> 100	76.7	> 100	> 100			> 100									
COc1ccc(C(=O)C(c2ccc(OC)cc2)C2(O)C(=O)Nc3ccccc32)cc1 (stereo not drawn)	> 100		> 100	> 100	> 100	> 100	> 100	> 100			> 100									
O=S1c2ccccc2N=C(c2ccc3ccccc3c2)CC1C1=CC=CCC1 (stereo not drawn)	51.7	49.4	42.6	33.1	31.4	40.5	29.8	62.3			32.2									
Cn1ccnc1C(=O)/C=C/c1ccc(C(=O)Nc2ccc(Cl)cc2)cc1	17.2	> 33.3	1.24	9.89	> 33.3	2.43	1.82	12.2	1.01			0.62	3.7	0.946 µM	0.81	0.761	2.23	0.973	1.37	> 33.3
COc1cc(/C=C2\[C@H]3c4c(c(OC)c(C)c(OC)c4OC)C[C@@H](C(=O)N2Cc2ccccc2)N3C(=O)OCC(C)C)c(OC)c(C)c1OC	> 100	> 100	> 100	> 100	> 100	> 100	> 100	> 100			> 100									
Cc1cc(O)cc2oc(=O)c3c(O)cc(O)cc3c12	> 100	> 100	71.1	> 100	> 100	31.2	> 100	> 100			> 100									
O=[N+]([O-])c1ccc(Br)c([N+](=O)[O-])c1	6.22	6.05	3.48	3.64		6.71	10.9	4.18	2.49	1.8	3.23	1.8	1.89		2.52	3.35	1.96	2.3	1.85	3.58
COc1cc(C2=NN(C)C(c3ccc([N+](=O)[O-])o3)C2)cc(OC)c1OC (stereo not drawn)	> 100	> 100	> 100	> 100	> 100	> 100	42.7	> 100			> 100									
CN(C)CCNC(=O)c1cc2ccccc2c2nc3ccccc3nc12	7.17	> 20.4	2.1	2.96	2.9	0.487	> 38.2	2.06			2.89									
Cc1cc(NS(=O)(=O)c2ccc(N=Nc3cc(N=Nc4ccc(S(=O)(=O)Nc5cc(C)nc(C)n5)cc4)c4c(NC(=O)C(Cl)Cl)cccc4c3OC(=O)C(Cl)Cl)cc2)nc(C)n1 (tested in a mixture with another compound)	88.1	> 100	56.7	52.2	46	> 100	35.9	40.8			31.6									
COc1ccc2c(=O)c(C)c(-c3ccccc3)oc2c1CN(C)C	> 100	> 100	> 100	> 100	> 100	> 100	> 100	> 100			> 100			> 100 µM and 30.6 µM						
CC1=C(C(=O)Nc2ccc(F)c(Cl)c2)C(c2ccccc2Cl)NC(=S)N1 (stereo not drawn)	> 50	> 50	> 50	> 50		> 50	> 50		42.7	41.9	> 50	17.5	> 50		> 50	30		48.8	30.1	> 50
C=C1C(=O)O[C@H]2[C@H]1CC/C(COC(=O)CCCCC(=O)OC/C1=C/CC[C@@]3(C)O[C@H]3[C@H]3OC(=O)C(=C)[C@@H]3CC1)=C\CC[C@@]1(C)O[C@@H]21		11		> 100			3.86	5.66	2.76	2.94	12.4		2.85			1.69	2.1		2.39	8.04
CCOC(=O)C12CCCC1(O)N(NC(=O)c1ccccc1)C(C)=C2C(=O)OC (stereo not drawn)	> 100	> 100	> 100		> 100	> 100	> 100	> 100			> 100									
C/C(=C\C(C)COCc1ccccc1)[C@H](COCc1ccccc1)OCc1ccccc1 (stereo partly drawn)	> 100	> 100	> 100	> 100	> 100	> 100	> 100				> 100									
Cc1ccc(NC(=O)C(=O)C2C(=O)N(c3ccccc3)N=C2N)cc1C (stereo not drawn)	> 100	> 100	> 100	> 100	> 100	> 100	> 100	> 100			> 100									
